Results from US8178530B2, “Imidazolopyrazine compounds useful for the treatment of degenerative and inflammatory diseases” (Janssen Pharmaceutica NV, priority 2006, dated 2012).

Key:
MMP1 expression by SFs = test: 'MMP assay': MMP1 expression by 'complex trigger' activated synovial fibroblasts (MMP1 ELISA); format: cell-based, human; conditions: Homo sapiens, Fibroblast, RASFs, 48 hrs
[1] = system: TNFα release by human PBMCs; test: Cytokine release by LPS-stimulated human PBMCs (TNFα ELISA); format: cell-based; conditions: PBMC, LPS 1 μg/mL, 24 hr
Method: Human peripheral blood mononuclear cells (PBMCs) are isolated from “buffy coats” prepared from the blood of healthy volunteers, isolated essentially according to method of Bøyum (1984). In brief, buffy coat is diluted 1:1 with 1×PBS (Gibco) and 30 mL is carefully put on top of 20 mL Lymphoprep™ (Lucron Bioproducts) in 50 mL Falcon tubes. After centrifugation (35 min, 400 g, 18° C.) the mononuclear cells are collected from the white interphase and washed 3 times with 1×PBS by resuspending and centrifugation (10 min, 200 g). Isolated PBMCs are finally resuspended in RPMI 1640 (Cat. No. 21875, Gibco) that is supplemented with 10% heat-inactivated FBS (Hyclone).
For the assay PBMCs are seeded at 2.5E6 cells/mL in 160 μL in 96-well plates (Nunc). Serial dilution of the test compounds are made first in DMSO (Sigma) and then diluted 50-fold in M199 medium (Gibco) containing 1% heat-inactivated FBS. Compounds are further 1/10 diluted in the assay plates to obtain final DMSO concentration of 0.2%. Cells are preincubated with the compounds for 1 hr at 37° C., 5% CO2. Then, cells are stimulated with LPS (Escherichia coli serotype 026:B6, Cat. No. L2654, Sigma) that is added in a volume of 20 μL to a final concentration of 1 μg/mL and cells are further cultured for 24 hr. The plates are centrifuged and the supernatant is collected and stored at −80° C. until analysis of appropriate dilutions in ELISAs.
The following 384-well chemiluminescent ELISA protocol was developed to measure TNFα levels in the supernatant: White Lumitrac 600 384-well plates (Greiner) are coated with (40 μL/well) anti-TNFα capture antibody (Cat. No. 551220, BD Pharmingen) that is diluted to 1 μg/mL in 1×PBS (Gibco). After overnight incubation at 4° C., plates are washed with 1×PBS (80 g NaCl, 2 g KCl (Sigma), 11.5 g Na2HPO4.7H2O and 2 g KH2PO4 in 10 L milliQ; pH 7.4) and blocked with 100 μL/well buffer B (1×PBS containing 1% BSA (Sigma), 5% sucrose (Sigma) and 0.05% NaN3 (Sigma)). After 4 hr incubation at RT, blocking buffer is removed and plates are washed once with PBST (1×PBS with 0.05% Tween-20 (Sigma)). Then, 40 μL of sample is transferred to the ELISA plates and plates are incubated at 4° C. Next day, plates are washed 3 times (twice with PBST and once with PBS) and 35 μL/well biotinylated anti-TNFα antibody (Cat. No. 554511, BD Pharmingen) diluted first to a concentration of 250 ng/ml in buffer D (1×PBS with 1% BSA) is added. After 2 h of incubation at RT, plates are washed as described above and 35 μL/well of a 1/2000 dilution of streptavidin-HRP conjugate (Cat. No. SNN2004, Biosource) in buffer D is added. After 45 min, plates are washed as described above and incubated for 5 min with 50 μL/well BM Chemiluminescence ELISA Substrate POD (Roche). Readout is performed on the Luminoscan Ascent Luminometer (Labsystems) with an integration time of 100 msec delivering raw data (RLU: relative luminescence units). The following controls are included in the experiments, a maximal signal control, in which the cells are activated by LPS but only the 0.2% DMSO vehicle (and thus no compound) is added. This control indicates the maximal level of TNFα that can be achieved in the test. A minimal signal control is also included in these experiments. Here, cells are not triggered. This control returns the basal TNFα levels produced by the PBMCs. The percent inhibition (PIN) of the TNFα release, achieved by the compounds is then calculated based on the RLU data returned by the ELISA with following formula: 100−[((TNFα level compound X at concentration Y−minimal TNFα levels)/(maximal TNFα levels−minimal TNFα levels))×100]. Where compounds are tested at 8 concentrations (1/3 serial dilution), EC50-values can be calculated by curve fitting of the means of the PIN data achieved for a compound at each test concentration. […]

SMILES | EC50 (MMP1 expression by SFs) | EC50 [1]
O=C1NCc2cc(-c3cnc(Nc4ccc(N5CCOCC5)cc4)c4nccn34)ccc21 [Compound 178, 5-[8-(4-Morpholin-4-yl-phenylamino)-imidazo[1,2-a]pyrazin-5-yl]-2,3-dihydro-isoindol-1-one] | 101 to 500 nM | 1 to 100 nM
NC(=O)c1ccc(-c2cnc(Nc3ccc(N4CCOCC4)cc3)c3nccn23)cc1 [Compound 13] | 501 to 1000 nM | > 1000 nM
CN1CCN(c2ccc(Nc3ncc(-c4cc[nH]c(=O)c4)n4ccnc34)cc2)CC1 [Compound 102, 4-{8-[4-(4-Methylpiperazin-1-yl)-phenylamino]imidazo[1,2-a]pyrazin-5-yl}-1H-pyridin-2-one] | > 1000 nM | > 1000 nM
NC(=O)c1ccc(-c2cnc(Nc3ccc(N4CCOCC4)cc3)c3nccn23)s1 [Compound 152] | 101 to 500 nM | 101 to 500 nM
NC(=O)c1cc(-c2cnc(Nc3ccc(N4CCOCC4)cc3)c3nccn23)co1 [Compound 203] | 501 to 1000 nM | > 1000 nM
O=c1cc(-c2cnc(Nc3ccc(N4CCOCC4)cc3)c3nccn23)cc[nH]1 [Compound 85, 4-[8-(4-Morpholin-4-yl-phenylamino)imidazo[1,2-a]pyrazin-5-yl]-1H-pyridin-2-one] | 501 to 1000 nM | > 1000 nM
c1cn2c(-c3cn[nH]c3)cnc(Nc3ccc(N4CCOCC4)cc3)c2n1 [Compound 1, (4-Morpholin-4-yl-phenyl)-[5-(1H-pyrazol-4-yl)-imidazo[1,2-a]pyrazin-8-yl]-amine] | > 1000 nM | > 1000 nM
NC(=O)c1cc(-c2cnc(Nc3ccc(N4CCOCC4)cc3)c3nccn23)cs1 [Compound 177, 4-[8-(4-Morpholin-4-yl-phenylamino)-imidazo[1,2-a]pyrazin-5-yl]-thiophene-2-carboxylic acid amide] | 101 to 500 nM | > 1000 nM
NC(=O)c1coc(-c2cnc(Nc3ccc(N4CCOCC4)cc3)c3nccn23)c1 [Compound 179, 5-[8-(4-Morpholin-4-yl-phenylamino)-imidazo[1,2-a]pyrazin-5-yl]-furan-3-carboxylic acid amide] | 101 to 500 nM | > 1000 nM
